In one test the target is T1, hMRP5-Δ1-94 (Homo sapiens, UniProt O15440).
T1 construct: The codon-optimized full-length human ABCC5 gene encoding the MRP5 protein (UniProt ID: O15440); 8xHis (C); 2xstrep (C); made in house; host or cells: HEK293F
The experiment in a line: MST binding assay, hMRP5-Δ1-94. Conditions: MST, digitonin-purified hMRP5-Δ1-94, 15 min at room temperature. As for the experimental part: We monitored the binding of different peptides to digitonin-purified hMRP5-Δ1-94-8xHis by MST assay (Monolith NT). HEPES buffer was used to replace Tris buffer during protein purification in the MST assay. The purified protein was mixed with RED-tris-NTA 2nd Generation dye (NanoTemper, MO-L018). Next, serially diluted peptides were mixed with the labeled protein. The mixtures were incubated for 15 min at room temperature, then the capillaries were loaded and the samples were assessed at 3% LED/excitation power and medium MST power. All peptides used in this study were synthesized in GL Biochem (Shanghai). The peptide sequence is provided as Source Data 5. The MST data were analyzed with MO.Affinity Analysis software.

In another test the target is T2, hMRP4 (Homo sapiens, UniProt O15439).
T2 sequence (O15439 1-1325): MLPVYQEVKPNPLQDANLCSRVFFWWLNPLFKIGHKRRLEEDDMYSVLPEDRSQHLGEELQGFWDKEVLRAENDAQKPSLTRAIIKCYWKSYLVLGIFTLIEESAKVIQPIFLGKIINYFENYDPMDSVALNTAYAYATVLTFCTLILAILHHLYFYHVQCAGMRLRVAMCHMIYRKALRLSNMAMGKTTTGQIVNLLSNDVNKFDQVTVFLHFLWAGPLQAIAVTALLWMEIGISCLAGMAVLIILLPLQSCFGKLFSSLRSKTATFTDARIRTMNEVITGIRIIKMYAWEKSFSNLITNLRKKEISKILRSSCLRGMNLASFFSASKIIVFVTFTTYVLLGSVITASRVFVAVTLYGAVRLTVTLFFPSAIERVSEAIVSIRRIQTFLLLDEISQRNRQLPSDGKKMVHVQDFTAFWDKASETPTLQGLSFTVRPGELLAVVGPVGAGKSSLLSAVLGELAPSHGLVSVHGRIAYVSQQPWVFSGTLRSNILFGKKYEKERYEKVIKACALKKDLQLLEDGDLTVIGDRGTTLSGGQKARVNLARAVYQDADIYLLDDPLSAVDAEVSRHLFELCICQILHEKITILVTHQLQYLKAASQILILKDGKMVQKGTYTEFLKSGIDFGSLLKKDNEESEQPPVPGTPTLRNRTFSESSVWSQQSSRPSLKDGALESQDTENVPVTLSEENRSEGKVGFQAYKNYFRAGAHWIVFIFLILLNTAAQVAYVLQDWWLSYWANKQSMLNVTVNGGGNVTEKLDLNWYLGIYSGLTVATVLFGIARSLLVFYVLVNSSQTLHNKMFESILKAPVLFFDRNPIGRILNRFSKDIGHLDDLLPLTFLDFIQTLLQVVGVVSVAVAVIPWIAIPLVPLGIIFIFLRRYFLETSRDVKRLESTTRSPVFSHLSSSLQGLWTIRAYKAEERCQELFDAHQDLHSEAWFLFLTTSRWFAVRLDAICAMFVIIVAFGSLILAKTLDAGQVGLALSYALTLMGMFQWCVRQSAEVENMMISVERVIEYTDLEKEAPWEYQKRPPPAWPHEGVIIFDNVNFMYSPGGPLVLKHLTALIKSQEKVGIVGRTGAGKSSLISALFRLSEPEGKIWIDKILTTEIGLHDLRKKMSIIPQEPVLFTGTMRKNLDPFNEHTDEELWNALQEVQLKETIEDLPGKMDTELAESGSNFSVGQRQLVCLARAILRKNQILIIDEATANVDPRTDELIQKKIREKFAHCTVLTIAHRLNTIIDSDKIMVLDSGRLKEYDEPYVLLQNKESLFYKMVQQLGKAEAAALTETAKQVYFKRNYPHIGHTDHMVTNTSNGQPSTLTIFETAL
The experiment in a line: MST binding assay, hMRP4. Conditions: MST, three independent measurements.

Entries after “also recorded” stand apart in the source; their conditions may differ. No end group written: not given here.

T1 sequence (O15440 95-1437 limits assumed, stated change not applied): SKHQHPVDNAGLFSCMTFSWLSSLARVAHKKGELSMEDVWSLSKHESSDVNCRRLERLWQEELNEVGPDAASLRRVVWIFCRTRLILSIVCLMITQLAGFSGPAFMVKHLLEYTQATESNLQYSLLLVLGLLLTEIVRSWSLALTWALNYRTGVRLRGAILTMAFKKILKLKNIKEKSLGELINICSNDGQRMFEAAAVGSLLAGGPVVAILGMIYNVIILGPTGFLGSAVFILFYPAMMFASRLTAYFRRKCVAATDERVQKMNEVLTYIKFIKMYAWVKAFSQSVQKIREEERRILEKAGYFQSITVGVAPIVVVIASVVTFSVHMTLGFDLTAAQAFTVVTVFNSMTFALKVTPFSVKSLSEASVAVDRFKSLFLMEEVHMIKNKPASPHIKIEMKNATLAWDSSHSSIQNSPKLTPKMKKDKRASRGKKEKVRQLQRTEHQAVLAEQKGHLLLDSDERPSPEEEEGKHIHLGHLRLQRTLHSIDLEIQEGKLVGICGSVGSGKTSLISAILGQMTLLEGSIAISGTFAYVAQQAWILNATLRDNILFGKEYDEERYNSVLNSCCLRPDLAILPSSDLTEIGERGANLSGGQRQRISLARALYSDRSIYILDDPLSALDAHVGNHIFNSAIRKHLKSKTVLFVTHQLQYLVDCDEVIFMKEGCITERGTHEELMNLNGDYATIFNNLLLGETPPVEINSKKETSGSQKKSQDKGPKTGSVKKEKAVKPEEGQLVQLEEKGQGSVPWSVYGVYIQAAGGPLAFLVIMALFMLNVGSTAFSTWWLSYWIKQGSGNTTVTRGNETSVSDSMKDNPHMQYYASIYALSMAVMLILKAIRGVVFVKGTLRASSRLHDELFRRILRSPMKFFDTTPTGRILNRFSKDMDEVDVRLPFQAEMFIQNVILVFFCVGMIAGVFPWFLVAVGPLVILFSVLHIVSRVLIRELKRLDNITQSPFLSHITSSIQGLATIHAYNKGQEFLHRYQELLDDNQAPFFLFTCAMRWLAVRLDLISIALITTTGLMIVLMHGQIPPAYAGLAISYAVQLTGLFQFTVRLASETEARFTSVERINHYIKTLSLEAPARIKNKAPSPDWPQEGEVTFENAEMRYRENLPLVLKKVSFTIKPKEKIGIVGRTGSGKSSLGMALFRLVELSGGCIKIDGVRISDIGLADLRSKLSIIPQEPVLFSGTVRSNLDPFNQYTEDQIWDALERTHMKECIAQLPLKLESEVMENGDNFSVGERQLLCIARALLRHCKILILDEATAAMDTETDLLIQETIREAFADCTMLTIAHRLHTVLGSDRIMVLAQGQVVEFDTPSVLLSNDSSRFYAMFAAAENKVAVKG

“CSKFRRTRPLECQDALETAARAEGLSLDASMHSQLRILDEC (cysteines drawn unpaired) [M5PI]”: the “binding affinity to hMRP5, in words” value on hMRP5-Δ1-94 is “stronger hMRP5 affinity than selected anticancer drugs”; at hMRP5-Δ1-94 (listed as Cys35-Cys75 peptide) it was “higher affinity for hMRP5 compared to the original Asp35-Glu75 peptide”; on hMRP5-Δ1-94 (listed as D35C-E75C), “highest affinity for hMRP5 among these peptides; also recorded: higher binding affinity to hMRP5 than the well-studied substrate doxorubicin and inhibitor trequinsin”. Moreover, the “binding affinity to hMRP4, in words” value on hMRP4 is “not detectable; also recorded: could not be estimated through MST test; also recorded: rarely”.

The record behind these values is article PMC11156954, “Inhibition and transport mechanisms of the ABC transporter hMRP5” (Nature Communications, 2024).
